{"source": "ChEMBL document CHEMBL5335835", "about": "“Terpenes and Terpenoids Conjugated with BODIPYs: An Overview of Biological and Chemical Properties” (J Nat Prod, 2024)", "biological_target": "T1, Alpha-tocopherol transfer protein (Homo sapiens, UniProt P49638)", "T1 sequence (P49638 whole entry)": "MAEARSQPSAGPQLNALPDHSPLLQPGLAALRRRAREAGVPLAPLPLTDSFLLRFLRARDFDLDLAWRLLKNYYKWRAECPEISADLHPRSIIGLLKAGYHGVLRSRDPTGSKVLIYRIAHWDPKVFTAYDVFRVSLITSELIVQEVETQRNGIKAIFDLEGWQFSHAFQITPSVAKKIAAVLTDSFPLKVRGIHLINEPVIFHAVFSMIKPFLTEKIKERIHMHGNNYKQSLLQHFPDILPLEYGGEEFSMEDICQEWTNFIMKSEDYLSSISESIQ", "test": "Binding affinity to human alpha-TTP assessed as dissociation constant incubated for 25 to 40 mins by fluorescence based assay"}
{"compound": "CC1=CC(C)=[N+]2C1=Cc1ccc(CCCCCCCC[C@]3(C)CCc4c(C)c(O)c(C)c(C)c4O3)n1[B-]2(F)F", "values": [{"measurement": "Kd", "value": 94, "unit": "nM"}]}
